What follows are compounds tested on NL-RLuc virus (assay: Inhibition of HIV replication (NL-RLuc reporter virus in MT-2 cells, luciferase readout)). Details: Human immunodeficiency virus 1, MT2, 120 h, read-out: Activity.
Format: cell-based
Description: Inhibition of HIV replication: A recombinant NL-RLuc proviral clone was constructed in which a section of the nef gene from NL4-3 was replaced with the Renilla Luciferase gene. This virus is fully infectious and can undergo multiple cycles of replication in cell culture. In addition, the luciferous reporter provides a simple and easy method for quantitating the extent of virus growth and consequently, the antiviral activity of test compounds. The plasmid pNLRLuc contains the proviral NL-Rluc DNA cloned into pUC18 at the PvuII site. The NL-RLuc virus was prepared by transfection of 293T cells with the plasmid pNLRLuc. Transfections were performed using the LipofectAMINE PLUS kit from Invitrogen (Carlsbad, Calif.) according to the manufacturer and the virus generated was titered in MT-2 cells. For susceptibility analyses, the titrated virus was used to infect MT-2 cells in the presence of compound, and after 5 days of incubation, cells were processed and quantitated for virus growth by the amount of expressed luciferase. Assay media was RPMI 1640 supplemented with 10% heat inactivated fetal bovine serum (FBS), 100 units/ml penicillin G/100 units/ml streptomycin, 10 mM HEPES buffer pH 7.55 and 2 mM L-glutamine. The results from at least 2 experiments were used to calculate the EC50 values. Luciferase was quantitated using the Dual Luciferase kit from Promega (Madison, Wis.). Susceptibility of viruses to compounds was determined by incubation in the presence of serial dilutions of the compound. The 50% effective concentration (EC50) was calculated by using the exponential form of the median effect equation where (Fa)=1/[1+(ED50/drug conc.)^m] (Johnson V A, Byington R T. Infectivity Assay. In Techniques in HIV Research. ed. Aldovini A, Walker B D. 71-76. New York: Stockton Press.1990). Activity equal to A refers to a compound having an EC50≤100 nM, while B and C denote compounds having an EC50 between 100 nM and 1 uM (B) or >1 uM (C).

Compound	EC50
COc1cc(CN2CCc3cc(-c4c(C)nc(C)c([C@H](OC(C)(C)C)C(=O)O)c4N4CCC(C)(C)CC4)ccc3C2)c(F)cc1Cl [Compound 93, (S)-2-(tert-butoxy)-2-(5-(2-(4-chloro-2-fluoro-5-methoxybenzyl)-1,2,3,4-tetrahydroisoquinolin-6-yl)-4-(4,4-dimethylpiperidin-1-yl)-2,6-dimethylpyridin-3-yl)acetic acid]	< 0.1 µM
Cc1nc(C)c([C@H](OC(C)(C)C)C(=O)O)c(N2CCC(C)(C)CC2)c1-c1ccc2c(c1)CCN(Cc1c(F)cccc1F)C2 [Compound 50, (S)-2-(tert-butoxy)-2-(5-(2-(2,6-difluorobenzyl)-1,2,3,4-tetrahydroisoquinolin-6-yl)-4-(4,4-dimethylpiperidin-1-yl)-2,6-dimethylpyridin-3-yl)acetic acid]	< 0.1 µM
Cc1nc(C)c([C@H](OC(C)(C)C)C(=O)O)c(N2CCC(C)(C)CC2)c1-c1ccc2c(c1)CCN(Cc1ccc(C(C)C)cc1)C2 [Compound 59, (S)-2-(tert-butoxy)-2-(4-(4,4-dimethylpiperidin-1-yl)-5-(2-(4-isopropylbenzyl)-1,2,3,4-tetrahydroisoquinolin-6-yl)-2,6-dimethylpyridin-3-yl)acetic acid]	< 0.1 µM
Cc1nc(C)c([C@H](OC(C)(C)C)C(=O)O)c(N2CCC(C)(C)CC2)c1-c1ccc2c(c1)CCN(Cc1ccc(Cl)cc1)C2 [Compound 56, (S)-2-(tert-butoxy)-2-(5-(2-(4-chlorobenzyl)-1,2,3,4-tetrahydroisoquinolin-6-yl)-4-(4,4-dimethylpiperidin-1-yl)-2,6-dimethylpyridin-3-yl)acetic acid]	< 0.1 µM
COc1ccc(CN2CCc3cc(-c4c(C)nc(C)c([C@H](OC(C)(C)C)C(=O)O)c4N4CCC(C)(C)CC4)ccc3C2)c(C)c1C [Compound 147, (S)-2-(tert-butoxy)-2-(4-(4,4-dimethylpiperidin-1-yl)-5-(2-(4-methoxy-2,3-dimethylbenzyl)-1,2,3,4-tetrahydroisoquinolin-6-yl)-2,6-dimethylpyridin-3-yl)acetic acid]	< 0.1 µM
COc1cc(C(F)(F)F)ccc1CN1CCc2cc(-c3c(C)nc(C)c([C@H](OC(C)(C)C)C(=O)O)c3N3CCC(C)(C)CC3)ccc2C1 [Compound 109, (S)-2-(tert-butoxy)-2-(4-(4,4-dimethylpiperidin-1-yl)-5-(2-(2-methoxy-4-(trifluoromethyl)benzyl)-1,2,3,4-tetrahydroisoquinolin-6-yl)-2,6-dimethylpyridin-3-yl)acetic acid]	< 0.1 µM
Cc1nc(C)c([C@H](OC(C)(C)C)C(=O)O)c(N2CCC(C)(C)CC2)c1-c1ccc2c(c1)CCN(Cc1cccc(OC(F)(F)C(F)F)c1)C2 [Compound 121, (S)-2-(tert-butoxy)-2-(4-(4,4-dimethylpiperidin-1-yl)-2,6-dimethyl-5-(2-(3-(1,1,2,2-tetrafluoroethoxy)benzyl)-1,2,3,4-tetrahydroisoquinolin-6-yl)pyridin-3-yl)acetic acid]	< 0.1 µM
COc1c(F)cccc1CN1CCc2cc(-c3c(C)nc(C)c([C@H](OC(C)(C)C)C(=O)O)c3N3CCC(C)(C)CC3)ccc2C1 [Compound 142, (S)-2-(tert-butoxy)-2-(4-(4,4-dimethylpiperidin-1-yl)-5-(2-(3-fluoro-2-methoxybenzyl)-1,2,3,4-tetrahydroisoquinolin-6-yl)-2,6-dimethylpyridin-3-yl)acetic acid]	< 0.1 µM
Cc1nc(C)c([C@H](OC(C)(C)C)C(=O)O)c(N2CCC(C)(C)CC2)c1-c1ccc2c(c1)CCN(Cc1ccc(F)c(C(F)(F)F)c1)C2 [Compound 67, (S)-2-(tert-butoxy)-2-(4-(4,4-dimethylpiperidin-1-yl)-5-(2-(4-fluoro-3-(trifluoromethyl)benzyl)-1,2,3,4-tetrahydroisoquinolin-6-yl)-2,6-dimethylpyridin-3-yl)acetic acid]	< 0.1 µM
Cc1ccc(CN2CCc3cc(-c4c(C)nc(C)c([C@H](OC(C)(C)C)C(=O)O)c4N4CCC(C)(C)CC4)ccc3C2)c(C)c1 [Compound 19, (S)-2-(tert-butoxy)-2-(5-(2-(2,4-dimethylbenzyl)-1,2,3,4-tetrahydroisoquinolin-6-yl)-4-(4,4-dimethylpiperidin-1-yl)-2,6-dimethylpyridin-3-yl)acetic acid]	< 0.1 µM
Cc1nc(C)c([C@H](OC(C)(C)C)C(=O)O)c(N2CCC(C)(C)CC2)c1-c1ccc2c(c1)CCN(Cc1ccc(F)c(Cl)c1)C2 [Compound 24, (S)-2-(tert-butoxy)-2-(5-(2-(3-chloro-4-fluorobenzyl)-1,2,3,4-tetrahydroisoquinolin-6-yl)-4-(4,4-dimethylpiperidin-1-yl)-2,6-dimethylpyridin-3-yl)acetic acid]	< 0.1 µM
Cc1cccc(Cl)c1CN1CCc2cc(-c3c(C)nc(C)c([C@H](OC(C)(C)C)C(=O)O)c3N3CCC(C)(C)CC3)ccc2C1 [Compound 23, (S)-2-(tert-butoxy)-2-(5-(2-(2-chloro-6-methylbenzyl)-1,2,3,4-tetrahydroisoquinolin-6-yl)-4-(4,4-dimethylpiperidin-1-yl)-2,6-dimethylpyridin-3-yl)acetic acid]	< 0.1 µM
Cc1nc(C)c([C@H](OC(C)(C)C)C(=O)O)c(N2CCC(C)(C)CC2)c1-c1ccc2c(c1)CCN(Cc1ccc3c(c1)OCCO3)C2 [Compound 156, (S)-2-(tert-butoxy)-2-(5-(2-((2,3-dihydrobenzo[b][1,4]dioxin-6-yl)methyl)-1,2,3,4-tetrahydroisoquinolin-6-yl)-4-(4,4-dimethylpiperidin-1-yl)-2,6-dimethylpyridin-3-yl)acetic acid]	< 0.1 µM
COc1cc(F)c(F)cc1CN1CCc2cc(-c3c(C)nc(C)c([C@H](OC(C)(C)C)C(=O)O)c3N3CCC(C)(C)CC3)ccc2C1 [Compound 86, (S)-2-(tert-butoxy)-2-(5-(2-(4,5-difluoro-2-methoxybenzyl)-1,2,3,4-tetrahydroisoquinolin-6-yl)-4-(4,4-dimethylpiperidin-1-yl)-2,6-dimethylpyridin-3-yl)acetic acid]	< 0.1 µM
COc1ccc(CN2CCc3cc(-c4c(C)nc(C)c([C@H](OC(C)(C)C)C(=O)O)c4N4CCC(C)(C)CC4)ccc3C2)cc1F [Compound 97, (S)-2-(tert-butoxy)-2-(4-(4,4-dimethylpiperidin-1-yl)-5-(2-(3-fluoro-4-methoxybenzyl)-1,2,3,4-tetrahydroisoquinolin-6-yl)-2,6-dimethylpyridin-3-yl)acetic acid]	< 0.1 µM
Cc1cc(CN2CCc3cc(-c4c(C)nc(C)c([C@H](OC(C)(C)C)C(=O)O)c4N4CCC(C)(C)CC4)ccc3C2)cc(C)c1F [Compound 75, (S)-2-(tert-butoxy)-2-(4-(4,4-dimethylpiperidin-1-yl)-5-(2-(4-fluoro-3,5-dimethylbenzyl)-1,2,3,4-tetrahydroisoquinolin-6-yl)-2,6-dimethylpyridin-3-yl)acetic acid]	< 0.1 µM
Cc1nc(C)c([C@H](OC(C)(C)C)C(=O)O)c(N2CCC(C)(C)CC2)c1-c1ccc2c(c1)CCN(Cc1cc(F)cc(OC(F)(F)F)c1)C2 [Compound 111, (S)-2-(tert-butoxy)-2-(4-(4,4-dimethylpiperidin-1-yl)-5-(2-(3-fluoro-5-(trifluoromethoxy)benzyl)-1,2,3,4-tetrahydroisoquinolin-6-yl)-2,6-dimethylpyridin-3-yl)acetic acid]	< 0.1 µM
Cc1nc(C)c([C@H](OC(C)(C)C)C(=O)O)c(N2CCC(C)(C)CC2)c1-c1ccc2c(c1)CCN(Cc1ccccc1C(F)(F)F)C2 [Compound 12, (S)-2-(tert-butoxy)-2-(4-(4,4-dimethylpiperidin-1-yl)-2,6-dimethyl-5-(2-(2-(trifluoromethyl)benzyl)-1,2,3,4-tetrahydroisoquinolin-6-yl)pyridin-3-yl)acetic acid]	< 0.1 µM
COc1ccc(CN2CCc3cc(-c4c(C)nc(C)c([C@H](OC(C)(C)C)C(=O)O)c4N4CCC(C)(C)CC4)ccc3C2)c(F)c1 [Compound 146, (S)-2-(tert-butoxy)-2-(4-(4,4-dimethylpiperidin-1-yl)-5-(2-(2-fluoro-4-methoxybenzyl)-1,2,3,4-tetrahydroisoquinolin-6-yl)-2,6-dimethylpyridin-3-yl)acetic acid]	< 0.1 µM
Cc1nc(C)c([C@H](OC(C)(C)C)C(=O)O)c(N2CCC(C)(C)CC2)c1-c1ccc2c(c1)CCN(Cc1cccc(F)c1C)C2 [Compound 82, (S)-2-(tert-butoxy)-2-(4-(4,4-dimethylpiperidin-1-yl)-5-(2-(3-fluoro-2-methylbenzyl)-1,2,3,4-tetrahydroisoquinolin-6-yl)-2,6-dimethylpyridin-3-yl)acetic acid]	< 0.1 µM
COc1cc(CN2CCc3cc(-c4c(C)nc(C)c([C@H](OC(C)(C)C)C(=O)O)c4N4CCC(C)(C)CC4)ccc3C2)ccc1F [Compound 101, (S)-2-(tert-butoxy)-2-(4-(4,4-dimethylpiperidin-1-yl)-5-(2-(4-fluoro-3-methoxybenzyl)-1,2,3,4-tetrahydroisoquinolin-6-yl)-2,6-dimethylpyridin-3-yl)acetic acid]	< 0.1 µM

Same assay, conditions: Human immunodeficiency virus 1, MT2, 120 h, read-out: EC50 μM

Compound	EC50
Cc1nc(C)c([C@H](OC(C)(C)C)C(=O)O)c(N2CCC(C)(C)CC2)c1-c1ccc2c(c1)CCN(Cc1ccc(C(C)C)cc1)C2 [Compound 59, (S)-2-(tert-butoxy)-2-(4-(4,4-dimethylpiperidin-1-yl)-5-(2-(4-isopropylbenzyl)-1,2,3,4-tetrahydroisoquinolin-6-yl)-2,6-dimethylpyridin-3-yl)acetic acid]	0.058 µM
Cc1cccc(Cl)c1CN1CCc2cc(-c3c(C)nc(C)c([C@H](OC(C)(C)C)C(=O)O)c3N3CCC(C)(C)CC3)ccc2C1 [Compound 23, (S)-2-(tert-butoxy)-2-(5-(2-(2-chloro-6-methylbenzyl)-1,2,3,4-tetrahydroisoquinolin-6-yl)-4-(4,4-dimethylpiperidin-1-yl)-2,6-dimethylpyridin-3-yl)acetic acid]	0.003 µM
Cc1nc(C)c([C@H](OC(C)(C)C)C(=O)O)c(N2CCC(C)(C)CC2)c1-c1ccc2c(c1)CCN(Cc1ccc3c(c1)OCCO3)C2 [Compound 156, (S)-2-(tert-butoxy)-2-(5-(2-((2,3-dihydrobenzo[b][1,4]dioxin-6-yl)methyl)-1,2,3,4-tetrahydroisoquinolin-6-yl)-4-(4,4-dimethylpiperidin-1-yl)-2,6-dimethylpyridin-3-yl)acetic acid]	0.008 µM

From US10189816B2, “Substituted pyridines as inhibitors of human immunodeficiency virus replication” (priority 2015, dated 2019)
